According to ChEMBL document CHEMBL5696442, “Discovery of type II inhibitors of TGFβ-activated kinase 1 (TAK1) and mitogen-activated protein kinase kinase kinase kinase 2 (MAP4K2)” (J Med Chem, 2015):
pIC50: −log10 of the molar value.

How the values were obtained:
[1] = target: T1, Mitogen-activated protein kinase kinase kinase kinase 2 (Homo sapiens) (UniProt Q12851); assay: Inhibition of MAP4K2 Lys2 labeling site in human A-375 cells at 0.5 uM by KiNativ Profiling analysis relative to control; assay type: cell-based
T1 sequence (whole entry): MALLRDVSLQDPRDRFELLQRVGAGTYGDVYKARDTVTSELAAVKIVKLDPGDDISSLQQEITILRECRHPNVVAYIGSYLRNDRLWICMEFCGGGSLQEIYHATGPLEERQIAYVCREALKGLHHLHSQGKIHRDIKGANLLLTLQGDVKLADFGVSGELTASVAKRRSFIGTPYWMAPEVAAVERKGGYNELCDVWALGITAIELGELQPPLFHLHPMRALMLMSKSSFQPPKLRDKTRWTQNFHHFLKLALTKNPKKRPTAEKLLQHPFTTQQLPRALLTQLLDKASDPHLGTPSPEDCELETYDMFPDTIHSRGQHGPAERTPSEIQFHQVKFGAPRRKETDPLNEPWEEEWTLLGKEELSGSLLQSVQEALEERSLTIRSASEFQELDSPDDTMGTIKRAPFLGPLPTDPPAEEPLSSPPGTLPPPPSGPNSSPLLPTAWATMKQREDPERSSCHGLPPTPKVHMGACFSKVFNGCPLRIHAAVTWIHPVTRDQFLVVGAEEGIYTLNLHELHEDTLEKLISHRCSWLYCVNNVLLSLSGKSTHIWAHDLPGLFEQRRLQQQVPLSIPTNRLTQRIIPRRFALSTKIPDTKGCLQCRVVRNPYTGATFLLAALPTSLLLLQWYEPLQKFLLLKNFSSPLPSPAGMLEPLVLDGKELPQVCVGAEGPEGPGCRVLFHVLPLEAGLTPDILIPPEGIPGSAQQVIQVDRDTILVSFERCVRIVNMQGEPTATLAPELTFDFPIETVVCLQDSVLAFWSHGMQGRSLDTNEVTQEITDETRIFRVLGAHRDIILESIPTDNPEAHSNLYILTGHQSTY

[2] = target: T1, Mitogen-activated protein kinase kinase kinase kinase 2 (Homo sapiens); assay: Inhibition of MAP4K2 (GCK) Lys1 labeling site in human A-375 cells at 0.05 uM by KiNativ Profiling analysis relative to control; assay type: cell-based
[3] = Inhibition of KHS1 Lys1 labeling site in human Huh-7 cells at 1 uM by KiNativ Profiling analysis relative to control; conditions: condition cancer
[4] = target: Cyclin-dependent kinase 6 (Homo sapiens) (UniProt Q00534); assay: Inhibition of CDK6 Lys2 labeling site in human Huh-7 cell lysate at 1 uM by KiNativ Profiling analysis relative to control; assay type: subcellular
[5] = target: STE20-like serine/threonine-protein kinase (Homo sapiens) (UniProt Q9H2G2); assay: Inhibition of SLK Lys2 labeling site harbouring DLKAGNILFTLDGDIKLADFGVSAK in human Huh-7 cell lysate at 1 uM by KiNativ Profiling analysis relative to control; assay type: subcellular
[6] = Inhibition of KHS1 (unknown origin) Lys1 labeling site by KiNativ Profiling analysis; design: species or system Homo sapiens
[7] = target: Macrophage colony-stimulating factor 1 receptor (Homo sapiens) (UniProt P07333); assay: Inhibition of CSF1R (unknown origin) at 1 uM by Ambit Kinomescan binding assay relative to control; values are per cent of control
[8] = target: T2, Mitogen-activated protein kinase kinase kinase 2 (Homo sapiens) (UniProt Q9Y2U5); assay: Inhibition of MAP3K2 (unknown origin) at 1 uM by Ambit Kinomescan binding assay relative to control; values are per cent of control
T2 sequence (whole entry): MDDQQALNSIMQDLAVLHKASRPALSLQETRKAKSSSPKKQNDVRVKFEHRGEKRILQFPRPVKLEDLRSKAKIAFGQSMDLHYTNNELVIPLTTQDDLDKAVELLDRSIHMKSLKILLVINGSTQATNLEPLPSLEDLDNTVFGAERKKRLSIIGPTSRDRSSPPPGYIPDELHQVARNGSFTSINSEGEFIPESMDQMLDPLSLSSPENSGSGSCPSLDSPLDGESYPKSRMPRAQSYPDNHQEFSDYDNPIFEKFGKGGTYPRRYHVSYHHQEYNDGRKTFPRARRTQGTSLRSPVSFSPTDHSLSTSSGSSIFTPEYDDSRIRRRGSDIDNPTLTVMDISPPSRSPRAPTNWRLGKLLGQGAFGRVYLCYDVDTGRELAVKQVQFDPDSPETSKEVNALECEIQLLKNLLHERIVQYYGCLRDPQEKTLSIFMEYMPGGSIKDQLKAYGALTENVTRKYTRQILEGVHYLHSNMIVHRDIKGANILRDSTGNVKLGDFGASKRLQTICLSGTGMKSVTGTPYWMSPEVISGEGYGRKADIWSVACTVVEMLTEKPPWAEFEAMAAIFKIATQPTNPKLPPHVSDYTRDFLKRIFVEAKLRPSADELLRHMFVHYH

[9] = system: Receptor-type tyrosine-protein kinase FLT3 (Homo sapiens), P36888 [D835Y]; assay: Inhibition of FLT3 D835Y mutant (unknown origin) at 1 uM by Ambit Kinomescan binding assay relative to control; values are per cent of control
[10] = target: T3, Serine/threonine-protein kinase tousled-like 1 (Homo sapiens) (UniProt Q9UKI8); assay: Inhibition of TLK1 (unknown origin) at 1 uM by Ambit Kinomescan binding assay relative to control
T3 sequence (whole entry): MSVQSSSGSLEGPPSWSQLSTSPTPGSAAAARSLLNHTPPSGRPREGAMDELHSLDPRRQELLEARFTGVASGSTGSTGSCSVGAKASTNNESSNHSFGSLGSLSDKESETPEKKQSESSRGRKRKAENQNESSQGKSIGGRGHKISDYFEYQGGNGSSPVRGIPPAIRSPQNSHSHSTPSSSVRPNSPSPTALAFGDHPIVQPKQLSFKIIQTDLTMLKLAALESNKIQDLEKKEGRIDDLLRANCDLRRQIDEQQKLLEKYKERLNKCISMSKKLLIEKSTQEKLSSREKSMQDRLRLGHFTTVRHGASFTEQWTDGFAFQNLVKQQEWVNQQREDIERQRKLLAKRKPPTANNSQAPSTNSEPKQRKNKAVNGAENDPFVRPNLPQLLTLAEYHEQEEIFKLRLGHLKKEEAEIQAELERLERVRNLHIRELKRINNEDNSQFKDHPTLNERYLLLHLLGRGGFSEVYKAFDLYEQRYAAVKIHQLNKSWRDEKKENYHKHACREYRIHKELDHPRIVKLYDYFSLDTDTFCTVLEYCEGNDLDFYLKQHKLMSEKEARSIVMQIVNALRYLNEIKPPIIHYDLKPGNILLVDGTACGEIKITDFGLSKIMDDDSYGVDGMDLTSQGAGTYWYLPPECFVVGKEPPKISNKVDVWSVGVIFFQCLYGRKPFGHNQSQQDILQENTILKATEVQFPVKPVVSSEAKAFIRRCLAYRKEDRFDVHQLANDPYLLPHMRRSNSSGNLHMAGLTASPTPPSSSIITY

Sequence of STE20-like serine/threonine-protein kinase (Homo sapiens) (Q9H2G2 whole entry, looked up): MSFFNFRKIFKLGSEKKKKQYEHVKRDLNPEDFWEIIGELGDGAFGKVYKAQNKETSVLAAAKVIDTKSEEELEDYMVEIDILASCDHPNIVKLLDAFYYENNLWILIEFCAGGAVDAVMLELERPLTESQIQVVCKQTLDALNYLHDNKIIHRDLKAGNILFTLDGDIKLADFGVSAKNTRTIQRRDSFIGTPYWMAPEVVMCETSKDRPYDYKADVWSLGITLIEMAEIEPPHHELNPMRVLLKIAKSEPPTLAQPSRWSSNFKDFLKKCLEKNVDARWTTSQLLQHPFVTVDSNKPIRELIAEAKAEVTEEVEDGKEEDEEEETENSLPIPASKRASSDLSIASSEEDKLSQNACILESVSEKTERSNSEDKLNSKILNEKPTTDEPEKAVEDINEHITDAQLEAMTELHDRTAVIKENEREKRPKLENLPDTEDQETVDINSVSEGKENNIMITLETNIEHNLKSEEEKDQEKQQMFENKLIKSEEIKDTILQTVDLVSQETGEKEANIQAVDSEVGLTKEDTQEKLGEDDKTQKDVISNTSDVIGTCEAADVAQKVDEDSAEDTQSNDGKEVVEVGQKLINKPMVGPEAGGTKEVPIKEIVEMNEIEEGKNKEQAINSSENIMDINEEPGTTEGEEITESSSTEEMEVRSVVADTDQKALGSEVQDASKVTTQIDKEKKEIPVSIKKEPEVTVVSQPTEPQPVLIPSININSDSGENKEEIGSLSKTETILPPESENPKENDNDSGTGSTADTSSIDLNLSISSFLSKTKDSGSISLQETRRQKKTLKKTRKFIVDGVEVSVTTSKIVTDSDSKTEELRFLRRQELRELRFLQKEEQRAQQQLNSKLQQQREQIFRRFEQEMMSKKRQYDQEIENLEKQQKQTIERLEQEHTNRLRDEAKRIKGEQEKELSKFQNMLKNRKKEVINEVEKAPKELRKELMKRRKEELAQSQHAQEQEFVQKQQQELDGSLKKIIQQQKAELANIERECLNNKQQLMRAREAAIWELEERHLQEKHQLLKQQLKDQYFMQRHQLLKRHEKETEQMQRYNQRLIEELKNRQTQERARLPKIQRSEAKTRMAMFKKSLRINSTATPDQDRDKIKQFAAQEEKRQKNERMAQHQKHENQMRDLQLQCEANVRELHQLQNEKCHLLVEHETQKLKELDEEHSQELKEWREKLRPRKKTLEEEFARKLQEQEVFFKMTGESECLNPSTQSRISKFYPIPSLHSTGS
Sequence of Macrophage colony-stimulating factor 1 receptor (Homo sapiens) (P07333 whole entry): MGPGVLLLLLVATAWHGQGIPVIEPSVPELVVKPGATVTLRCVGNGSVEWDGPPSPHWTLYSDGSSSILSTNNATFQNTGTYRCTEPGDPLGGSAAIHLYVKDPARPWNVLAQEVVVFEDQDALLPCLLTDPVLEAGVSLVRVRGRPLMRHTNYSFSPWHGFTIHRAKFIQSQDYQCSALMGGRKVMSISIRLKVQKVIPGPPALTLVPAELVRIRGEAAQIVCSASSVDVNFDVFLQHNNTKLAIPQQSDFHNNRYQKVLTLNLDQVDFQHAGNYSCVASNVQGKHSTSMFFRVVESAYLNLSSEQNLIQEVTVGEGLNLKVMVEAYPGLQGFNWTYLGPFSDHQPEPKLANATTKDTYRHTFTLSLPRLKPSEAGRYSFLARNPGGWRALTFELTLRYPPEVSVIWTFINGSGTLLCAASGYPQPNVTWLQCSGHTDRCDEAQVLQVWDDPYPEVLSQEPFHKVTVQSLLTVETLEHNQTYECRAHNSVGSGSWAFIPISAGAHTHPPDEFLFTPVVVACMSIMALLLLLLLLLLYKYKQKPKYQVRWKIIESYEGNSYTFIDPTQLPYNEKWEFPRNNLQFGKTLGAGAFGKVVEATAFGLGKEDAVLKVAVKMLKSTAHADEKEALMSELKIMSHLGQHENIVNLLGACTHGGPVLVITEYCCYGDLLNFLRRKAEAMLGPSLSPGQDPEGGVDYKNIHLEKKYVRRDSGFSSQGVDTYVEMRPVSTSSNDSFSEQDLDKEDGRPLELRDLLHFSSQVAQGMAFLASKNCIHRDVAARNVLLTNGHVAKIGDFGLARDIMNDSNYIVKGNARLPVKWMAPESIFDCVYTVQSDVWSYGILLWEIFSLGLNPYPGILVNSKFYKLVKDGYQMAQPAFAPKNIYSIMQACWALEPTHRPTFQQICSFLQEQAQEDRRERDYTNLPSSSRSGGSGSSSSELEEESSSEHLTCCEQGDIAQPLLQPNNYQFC
Sequence of Cyclin-dependent kinase 6 (Homo sapiens) (Q00534 whole entry): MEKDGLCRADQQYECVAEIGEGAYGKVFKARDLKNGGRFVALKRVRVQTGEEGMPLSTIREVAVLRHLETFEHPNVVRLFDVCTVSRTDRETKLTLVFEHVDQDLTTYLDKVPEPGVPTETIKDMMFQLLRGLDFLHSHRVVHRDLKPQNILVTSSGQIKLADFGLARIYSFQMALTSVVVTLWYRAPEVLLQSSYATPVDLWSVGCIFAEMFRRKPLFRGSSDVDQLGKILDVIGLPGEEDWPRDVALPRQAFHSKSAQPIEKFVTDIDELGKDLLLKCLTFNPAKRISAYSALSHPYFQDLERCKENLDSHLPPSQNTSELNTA

Structure (SMILES): CCN1CCN(Cc2ccc(NC(=O)c3ccc(C)c(Oc4ccnc5[nH]ccc45)c3)cc2C(F)(F)F)CC1
- inhibition [1]: 91.1%
- inhibition [2]: 98.2%

Structure (SMILES): CNc1cc(Oc2cc(C(=O)Nc3cc(N4CCN(C)CC4)cc(C(F)(F)F)c3)ccc2C)ncn1
- inhibition at 1 µM [3]: -10.3%
- inhibition [4]: -1.9%
- inhibition [5]: 30.2%

Structure (SMILES): CCN1CCN(Cc2ccc(NC(=O)c3ccc(C)c(/C=C/c4cnc5[nH]ccc5c4OC)c3)cc2C(F)(F)F)CC1
- pIC50 [6]: 5.92
- residual activity [7]: 0.75%
- residual activity [8]: 23%
- residual activity [9]: 6.8%
- inhibition [10]: 79%
